Legend:
[1] = tested on: MSSA ATCC 29213; test: 2 h killing assay (colony count), MSSA; format: cell-based, Staphylococcus aureus; conditions: 10 μM peptide, 37 °C, 10^7 CFU/mL MSSA ATCC 29213, 5 mM HEPES, 20 mM glucose, pH 7.4, mean ± S.D. of three independent experiments
Protocol: (§1) To determine the antibacterial activity, cells (MSSA ATCC 29213 and MRSA ATCC 33591) from secondary culture mid-logarithmic phase were used. The cells were centrifuged, washed and re-suspended in buffer (5 mM HEPES, 20 mM glucose, pH 7.4). The re-suspended cells were adjusted to OD600 of 0.5 spectrophotometrically (~10^8 CFU/mL). Desired cell densities were then exposed to 10 μM concentration of α-MSH and other analogues and incubated at 37 °C for 2 h. After 2 h incubation, the cells were diluted in buffer and small aliquots were plated on BHI agar plates. The plates were incubated overnight at 37 °C. Survival was determined by counting of the colony forming unit (CFU/mL) on agar plate using the following formula[23]: […]

[2] = tested on: B16 mouse melanoma cells stably expressing human melanocortin receptor MC1R; test: Cyclic-AMP accumulation analysis; format: cell-based; conditions: 600 nM, 1 μM and 10 μM peptide, 10 min
Protocol: The intracellular cyclic-AMP analysis was performed according to a method described elsewhere, with slight modifications. Briefly, B16 mouse melanoma cells stably expressing human melanocortin receptor MC1R were grown to confluence in DMEM medium (Sigma-Aldrich, USA) containing 10% fetal calf serum (FCS) and 1x anti-anti (Gibco). The cells were seeded in 12-well plates 48 h before assay and grown to 10^5 cells/well. For the assay, the medium was removed and cells were washed with 1 mL of media. Then 1 mL DMEM media (without FCS) containing 100 μM 3-isobutyl-1-methylxanthine (IBMX) was added to each well and incubated for 30 min at 37 °C. The media was then discarded and various concentrations of α-MSH and KKK-MSH viz., 600 nM, 1 μM and 10 μM, in 1 mL fresh 25% DMEM media (without FCS) in PBS containing 100 μM IBMX were added to the appropriate wells and incubated for 10 min at 37 °C, 5% CO2. After 10 min the reaction was stopped by aspirating the media and washing the wells with 1 mL PBS. 200 μL 0.1 M hydrochloric acid was then added to each well and the wells were scrapped. The lysates were centrifuged at 600 rcf for 5 min and the supernatants were collected and diluted 1000 times in 0.1 M HCl and used for analysis of the total cyclic-AMP content using Enzyme Immunoassay Kit (Sigma-Aldrich, USA, CA200) according to the manufacturer’s instructions.

[3] = Lipid binding by Trp fluorescence titration
Protocol: Further, we evaluated the relative binding constants of α-MSH and KKK-MSH to bacterial mimic SUVs to understand if there are differences between lipid binding affinities of these two peptides. Towards this, we incubated a fixed concentration of peptide (12.5 μM) with increasing concentrations of bacterial mimic SUVs (DMPC:DMPG, 7:3, w/w) and concomitant changes in the intensity of emission maxima for Trp residue were recorded. Correction for light scattering was done by subtracting the corresponding spectra of the SUVs alone. […]
Figure 7 Trp fluorescence studies to estimate binding of α-MSH and KKK-MSH to bacterial mimic SUVs. Increasing concentrations of DMPC:DMPG (7:3, w/w) SUVs in 10 mM TES buffer (pH 7.2) were titrated with fixed peptide concentration (12.5 μM) and the emission spectrum was recorded. […] The fluorescence spectrum was recorded at 25 °C by exciting samples at 295 nm and recording emission from 310 nm to 450 nm. […] Contributions from the buffer and SUVs were appropriately subtracted and volume corrected fluorescence values were used to calculate the fraction of bound peptide.
Lipid binding was measured by titrating SUVs (DMPC:DMPG, 7:3, w/w) into 12.5 μM of the peptide by varying lipid to peptide ratio from 75.6 to 3.3. After each addition of lipid, emission spectrum was recorded between 310 to 450 nm using excitation at 295 nm with excitation and emission slit width of 3 nm. […]

[4] = tested on: MSSA ATCC 29213; format: cell-based, Staphylococcus aureus; conditions: at 10.47 μM peptide; thereafter marginal increase up to 41.2 μM
Protocol: The cytoplasmic membrane depolarization was measured using membrane potential sensitive cyanine dye DiSC3(5)[57]. Briefly, mid-logarithmic phase MSSA ATCC 29213 cells were washed and re-suspended in buffer (5 mM HEPES, 20 mM glucose, pH 7.2) to an OD600 of 0.05 which corresponds to ~10^7 CFU/mL. Cells were divided into aliquots and incubated with 2 μM of DiSC3(5) for 1 h to get steady baseline fluorescence intensity. The dye-loaded cells were treated with increasing peptide concentrations (2.1 μM, 10.47 μM, 20.83 μM and 41.23 μM). Fluorescence was monitored in a Shimadzu RF-5301 PC spectrofluorimeter at an excitation wavelength of 622 nm and an emission wavelength of 670 nm. The corresponding killing was measured by plating the aliquots onto BHI agar plate to obtain viable bacterial counts.

[5] = tested on: MRSA ATCC 33591; test: 2 h killing assay (colony count), MRSA; format: cell-based, Staphylococcus aureus; conditions: 10 μM peptide, 37 °C, 10^6 CFU/mL MRSA ATCC 33591, 5 mM HEPES, 20 mM glucose, pH 7.4, mean ± S.D. of three independent experiments
Protocol: as §1

[6] = tested on: MSSA ATCC 29213; test: Membrane permeabilization, PI uptake by flow cytometry; format: cell-based, Staphylococcus aureus; conditions: 10 μM peptide, 1 h, 37 °C, 10^5 CFU/mL in PBS pH 7.4; >10 a.u. counted positive; mean ± S.D. of three independent experiments
Protocol: The propidium iodide (PI) uptake assay was performed to assess membrane permeabilization by flow cytometry according to a method described elsewhere[58]. MSSA ATCC 29213 cells were grown in BHI broth to mid-logarithmic phase and harvested by centrifugation at 4,000 rpm for 10 min. The cell pellet was washed once with PBS (10 mM sodium phosphate, 150 mM NaCl, pH 7.4) and was adjusted to 10^5 CFU/mL in PBS. The cells were incubated with PI (1.3 μg/mL) at 37 °C for 20 min in the dark. After incubating the cells with PI, cells were exposed to peptides (10 μM) at 37 °C. PI fluorescence was measured after 1 h incubation with excitation and emission wavelength of 544 nm and 620 nm, respectively, using Becton Dickinson (BD) FACS verse, San Jose, CA. The cells having more than 10 fluorescence unit (arbitrary) were considered to be stained with PI.

[7] = RP-HPLC elution, % hydrophobicity; format: physicochemical; conditions: chromatographic, C18 column
Source text: A balance between hydrophobicity and cationic charge has been reported to be crucial for the activity of many membrane active CAMPs[39][40][41]. […] For α-MSH it has been shown that the minimum energy conformation is a β-turn which is present in the middle of the sequence spanning the putative message region (residues 6–9)[42]. […] Although, acquisition of secondary structure in the vicinity of phospholipid bilayers has been reported to be crucial for activity, there are examples where no direct correlation between peptide structure acquisition ability and antibacterial activity was observed.

[8] = tested on: 3T3 murine fibroblast cell line; format: cell-based, mouse
Protocol: The cytotoxicity of α-MSH and analogues was tested against 3T3 murine fibroblast cell line using a protocol as described previously. The cell line was propagated at 37 °C in 5% CO2 to over 75% confluence in DMEM supplemented with 10% fetal bovine serum (FBS) and antibiotics and transferred (after treatment with trypsin) to each well of a 24-well plate to a final count of 0.2 × 10^5 cells/well for 24 h. After 24 h, media was aspirated and desired concentration of peptides (50 μM) dissolved in 25% (v/v) DMEM in PBS was added to each well (in triplicate). Triplicate wells without treatment were set as control and wells with 2% Triton X-100 were used as positive control. The plate was kept for 2 h, at 37 °C in 5% CO2 incubator. After 2 h, media was removed and the cells were washed once with 1 mL PBS. In dark, 1 mL MTT (working conc. 0.1 mg/mL) was added to each well and incubated for 2 h at 37 °C. After 2 h, the formazan crystals formed were dissolved in 200 μL of DMSO and kept for 5 min in the incubator. 150 μL of this mixture was transferred to a fresh 96-well plate and absorbance was measured spectrophotometrically at 570 nm. % cytotoxicity was calculated as [(OD570 of control-OD570 of sample)/(OD570 of control)] × 100. The assay was done in triplicate on three different days.

Ac-KYKMKHFRWGKPV-NH2 [KKK-MSH]
Reduction in initial cell count [1]: 4.07 ± 0.92 Log10 CFU/mL | Cyclic-AMP levels compared to untreated control ([2]; 37 °C, 100 μM IBMX, enzyme immunoassay, p < 0.05): dose-dependent elevation in cyclic-AMP | Cyclic-AMP levels compared to α-MSH ([2]; comparable at higher, lower at lower concentration): comparable or lower levels of cyclic-AMP | Binding constant to bacterial mimic SUVs ([3]; 12.5 μM peptide titrated with DMPC:DMPG (7:3, w/w) SUVs, L:P 75.6 to 3.3, 10 mM TES pH 7.2, 25 °C, hyperbolic fit, one site model): 15,402.74 M^−1 | Binding constant relative to α-MSH ([3]; DMPC:DMPG (7:3, w/w) SUVs, steady-state fluorescence): ~ 18 fold | Membrane depolarization, relative fluorescence intensity (RFI) of DiSC3(5) [4]: appreciable increase in RFI | Reduction in initial cell count [5]: 3.81 ± 0.33 Log10 CFU/mL | Cells retaining PI (PI positive cells) [6]: 67.6 ± 3.4% | % H (% hydrophobicity based on % of acetonitrile at RP-HPLC elution) [7]: 39.9%

Triton X-100
Cytotoxicity relative to growth control [8]: 83%

Reference: article PMC4985751, “Enhanced Cationic Charge is a Key Factor in Promoting Staphylocidal Activity of α-Melanocyte Stimulating Hormone via Selective Lipid Affinity” (Scientific Reports, 2016)
